The inhibition is the change of the read-out against control, counted positive when it falls.

Like-named read-outs stand apart in the source and are kept apart here.

Here are results for 24 compounds from patent US8173689B2 (Novartis AG, priority 2006, dated 2012).

Assay [1] deals with T1, cytoplasmic domain of the human CSF-1R (Homo sapiens, UniProt P07333).
T1 construct: Recombinant protein corresponding to the cytoplasmic domain of the human CSF-1R; purchased Invitrogen Corporation, Carlsbad, Calif; PV3249
T1 sequence (P07333 539-972 limits assumed): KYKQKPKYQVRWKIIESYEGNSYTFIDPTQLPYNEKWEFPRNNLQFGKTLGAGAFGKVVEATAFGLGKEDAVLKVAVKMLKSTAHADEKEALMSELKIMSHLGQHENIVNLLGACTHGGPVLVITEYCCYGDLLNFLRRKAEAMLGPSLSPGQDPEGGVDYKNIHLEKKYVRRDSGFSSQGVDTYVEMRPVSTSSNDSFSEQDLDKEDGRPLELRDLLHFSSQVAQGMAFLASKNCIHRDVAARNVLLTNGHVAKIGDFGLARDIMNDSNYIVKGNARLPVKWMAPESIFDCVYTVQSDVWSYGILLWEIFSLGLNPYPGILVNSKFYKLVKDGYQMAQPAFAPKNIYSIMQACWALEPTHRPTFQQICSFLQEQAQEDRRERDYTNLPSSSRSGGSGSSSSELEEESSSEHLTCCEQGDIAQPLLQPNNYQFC
Nature of the assay: In vitro kinase assay for colony stimulating factor-1 receptor (AlphaScreen). Format: biochemical. The following applies: tested at about 1 μM; for inhibition at 1 µM: read-out: CSF-1R percent inhibition. In a few lines:
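At a low ATP level of 1 μM, phosphate transfer by the cytoplasmic-domain kinase (4 nM) was quantified with an AlphaScreen anti-phosphotyrosine bead pair.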
On the technique in general: In Alpha technology, singlet oxygen from a donor bead excites a nearby acceptor bead.

In a further assay the target is T2, kinase domain of PDGFRβ (Homo sapiens, UniProt P09619).
T2 construct: The kinase domain of PDGFRβ was assayed in 50 mM Hepes; purchased Invitrogen P3082
Nature of the assay: Inhibition of PDGFRb kinase signaling in an in vitro biochemical assay (alphascreen). The following applies: tested at about 1 μM; for inhibition at 1 µM: read-out: PDGFRβ percent inhibition.

Assay [2] deals with MNFS60 (murine AML cells). Put plainly: Cell viability assay in MCSF dependent MNFS60 cells (Cell Titer Glo). Format: cell-based. The following applies: Mus musculus, tested at about 1 μM; MNFS60 cells; read-out: M-NFS-60 CP percent inhibition. The protocol: Cell viability was assessed by Cell Titer Glo, Promega. […] Test compounds were serially diluted (3 fold) in DMSO to 500× the final concentration. […] Final concentration of MCSF is 10 ng/ml. Cells were incubated for 72 hrs at 37° C., 5% CO2. After the incubation 100 μl Cell Titer Glo is added to each well to determine viable cells. The assay was performed according to the manufacturer's instruction (Promega Corporation, Madison, Wis. USA). Each experimental condition was performed in triplicate. Raw data was imported in Abase and EC50s calculated with XL-fit data analysis software.

A further assay concerns the target T3, kinase domain of cKIT (Homo sapiens, UniProt P10721).
T3 construct: The kinase domain of cKIT was assayed in 50 mM Hepes; purchased Upstate 14-559
Nature of the assay: Inhibition of cKIT kinase signaling in an in vitro biochemical assay (alphascreen). The following applies: tested at about 1 μM; for inhibition at 1 µM: read-out: cKit percent inhibition.

T3 sequence (P10721 589-937 limits assumed): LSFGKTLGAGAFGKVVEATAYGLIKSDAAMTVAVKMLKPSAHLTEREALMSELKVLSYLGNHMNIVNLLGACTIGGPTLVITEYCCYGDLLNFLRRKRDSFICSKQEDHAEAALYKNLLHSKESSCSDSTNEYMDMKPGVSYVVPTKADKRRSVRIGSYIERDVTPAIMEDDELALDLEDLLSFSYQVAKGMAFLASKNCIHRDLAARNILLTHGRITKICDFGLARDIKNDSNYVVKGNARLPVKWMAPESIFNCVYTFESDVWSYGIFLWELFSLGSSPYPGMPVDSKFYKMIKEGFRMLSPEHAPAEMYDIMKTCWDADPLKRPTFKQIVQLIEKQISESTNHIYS
T2 sequence (P09619 600-962 limits assumed): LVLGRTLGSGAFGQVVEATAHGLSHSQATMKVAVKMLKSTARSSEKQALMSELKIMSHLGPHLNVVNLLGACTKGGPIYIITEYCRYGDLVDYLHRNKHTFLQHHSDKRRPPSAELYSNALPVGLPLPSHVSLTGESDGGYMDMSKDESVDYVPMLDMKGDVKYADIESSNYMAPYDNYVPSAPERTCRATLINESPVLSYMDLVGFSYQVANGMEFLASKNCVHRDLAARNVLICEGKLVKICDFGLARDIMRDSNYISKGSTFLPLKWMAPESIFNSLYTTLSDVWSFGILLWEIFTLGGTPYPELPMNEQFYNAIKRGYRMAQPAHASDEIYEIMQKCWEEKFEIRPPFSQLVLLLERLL

Consider `CC(=O)Nc1cc(Oc2ccc3nc(NC4CCCCC4)oc3c2)ccn1` [Compound 29, N-[4-(2-Cyclohexylamino-benzooxazol-6-yloxy)-pyridin-2-yl]-acetamide], for which the inhibition at 1 µM in assay [1] was 99%; at kinase domain of PDGFRβ, 51%; in assay [2], 0%.

For the compound `CNC(=O)c1cc(Oc2ccc3nc(Nc4ccccc4OC)oc3c2)ccn1` [Compound 11, 4-[2-(2-Methoxy-phenylamino)-benzooxazol-6-yloxy]-pyridin-2-carboxylic acid methylamide], the inhibition at 1 µM in assay [1] was 99%; at kinase domain of PDGFRβ, 96%; in assay [2], 26%.

Regarding `CNC(=O)c1cc(Oc2ccc3nc(Nc4ccc(Br)cc4)oc3c2)ccn1` [Compound 1, 4-[2-(4-Bromo-phenylamino)-benzooxazol-6-yloxy]-pyridine-2-carboxylic acid methylamide], the inhibition at 1 µM was 99% in assay [1] and 21% in assay [2].

In the case of `CCOc1ccccc1Nc1nc2ccc(Oc3ccnc(C(=O)NC)c3)cc2o1` [Compound 12, 4-[2-(2-Ethoxy-phenylamino)-benzooxazol-6-yloxy]-pyridin-2-carboxylic acid methylamide], the inhibition at 1 µM was determined as 99% in assay [1], 12% at kinase domain of PDGFRβ and 30% in assay [2].

With `CNC(=O)c1cc(Oc2ccc3nc(NCc4ccccn4)oc3c2)ccn1` [Compound 40, 4-{2-[(Pyridin-2-ylmethyl)-amino]-benzooxazol-6-yloxy}-pyridine-2-carboxylic acid methylamide], the results for the inhibition at 1 µM (in assay [1]; at kinase domain of PDGFRβ; in assay [2]) were 99%, 6% and 0%, respectively.

With `CNC(=O)c1cc(Oc2ccc3nc(Nc4ccccc4N4CCOCC4)oc3c2)ccn1` [Compound 3, 4-[2-(2-Morpholin-4-yl-phenylamino)-benzooxazol-6-yloxy]-pyridin-2-carboxylic acid methylamide], the inhibition at 1 µM in assay [1] amounted to 96%; in assay [2] it was 0%.

For `CNC(=O)c1cc(Oc2ccc3nc(N[C@H]4CCCC[C@H]4N)sc3c2)ccn1` [Example 292, 4-(2-((1S,2R)-2-aminocyclohexylamino)benzo[d]thiazol-6-yloxy)-N-methylpicolinamide], the inhibition at 1 µM in assay [1] (compounds of Table 3) amounted to 95%; at kinase domain of cKIT (compounds of Table 3) it was 3%; on kinase domain of PDGFRβ (compounds of Table 3), 0%.

Regarding `CNC(=O)c1cc(Oc2ccc3nc(N[C@H](CO)c4ccccc4)oc3c2)ccn1` [Compound 56, 4-[2-((S)-2-Hydroxy-1-phenyl-ethylamino)-benzooxazol-6-yloxy]-pyridine-2-carboxylic acid methylamide], the inhibition at 1 µM was 66% in assay [1], 55% at kinase domain of cKIT and 0% at kinase domain of PDGFRβ.

As for `CNC(=O)c1cc(Oc2ccc3nc(N[C@H]4CCCNC4)sc3c2)ccn1` [Example 332, (S)-N-methyl-4-(2-(piperidin-3-ylamino)benzo[d]thiazol-6-yloxy)picolinamide], the inhibition at 1 µM was found to be 48% in assay [1], 38% on kinase domain of cKIT and 10% at kinase domain of PDGFRβ.

For `CNC(=O)c1cc(Oc2ccc3nc(N[C@H]4CCCC[C@H]4NC(=O)[C@H]4CCCO4)sc3c2)ccn1` [Example 309, N-methyl-4-(2-((1S,2R)-2-((R)-tetrahydrofuran-2-carboxamido)cyclohexylamino)benzo[d]thiazol-6-yloxy)picolinamide], the inhibition at 1 µM in assay [1] worked out at 74%; at kinase domain of cKIT, 6%; at kinase domain of PDGFRβ, 13%.

Turning to `CNC(=O)c1cc(Oc2ccc3nc(N[C@@H]4CCC(=O)NC4)sc3c2)ccn1` [Compound 86], the inhibition at 1 µM in assay [1] (compounds of Table 3) was found to be 63%; at kinase domain of cKIT (compounds of Table 3) it was 15%; at kinase domain of PDGFRβ (compounds of Table 3), 32%.

Consider `O[C@@H]1CCCC[C@H]1Nc1nc2ccc(Oc3ccnc(Cl)c3)cc2s1` [Example 225, (1R,2R)-2-(6-(2-chloropyridin-4-yloxy)benzo[d]thiazol-2-ylamino)cyclohexanol], for which the inhibition at 1 µM in assay [1] (compounds of Table 3) was 90%; at kinase domain of cKIT (compounds of Table 3), 21%; on kinase domain of PDGFRβ (compounds of Table 3), 0%.

In the case of `CNC(=O)c1cc(Oc2ccc3nc(N[C@H]4CCCC[C@H]4NC(=O)c4ccccc4)sc3c2)ccn1` [Example 312, 4-(2-((1S,2R)-2-benzamidocyclohexylamino)benzo[d]thiazol-6-yloxy)-N-methylpicolinamide], the results for the inhibition at 1 µM (in assay [1]; on kinase domain of cKIT; at kinase domain of PDGFRβ) were 76%, 0% and 14%, respectively.

Turning to `CNC(=O)c1cc(Oc2ccc3nc(NC4CCCC(NC(C)=O)C4)sc3c2)ccn1` (stereo not shown) [Example 296, 4-(2-(3-acetamidocyclohexylamino)benzo[d]thiazol-6-yloxy)-N-methylpicolinamide], the values for the inhibition at 1 µM (in assay [1] (compounds of Table 3); on kinase domain of cKIT (compounds of Table 3); at kinase domain of PDGFRβ (compounds of Table 3)) were 97%, 1% and 9%, respectively.

Take `CNC(=O)c1cc(Oc2ccc3nc(N[C@@H]4CCCC[C@H]4OCc4ccccc4)sc3c2)ccn1` [Compound 155, 4-[2-((1R,2R)-2-Benzyloxy-cyclohexylamino)-benzothiazol-6-yloxy]-pyridine-2-carboxylic acid methylamide]: the values for the inhibition at 1 µM (in assay [1]; on kinase domain of cKIT; on kinase domain of PDGFRβ) were 87%, 0% and 8%, respectively.

Consider `CNC(=O)c1cc(Oc2ccc3nc(N(C)Cc4ccccc4)oc3c2)ccn1` [Compound 106, 4-[2-(Benzyl-methyl-amino)-benzooxazol-6-yloxy]-pyridine-2-carboxylic acid methylamide], for which the figures for the inhibition at 1 µM (in assay [1]; at kinase domain of cKIT; on kinase domain of PDGFRβ) were 99%, 2% and 0%, respectively.

Consider `CNC(=O)c1cc(Oc2ccc3nc(N[C@H]4CCCN(C(=O)NC(C)C)C4)sc3c2)ccn1` [Example 333, (S)-4-(2-(1-(isopropylcarbamoyl)piper-idin-3-ylamino)benzo[d]thiazol-6-yloxy)-N-methylpicolinamide], for which the values for the inhibition at 1 µM (in assay [1]; on kinase domain of cKIT; at kinase domain of PDGFRβ) were 86%, 21% and 6%, respectively.

Consider `CNC(=O)c1cc(Oc2ccc3nc(NCCN4CCCCC4)oc3c2)ccn1` [Compound 64, 4-[2-(2-Piperidin-1-yl-ethyl-amino)-benzooxazol-6-yloxy]-pyridine-2-carboxylic acid methylamide], for which the figures for the inhibition at 1 µM (in assay [1]; at kinase domain of cKIT; at kinase domain of PDGFRβ) were 77%, 0% and 21%, respectively.

Consider `CNC(=O)c1cc(Oc2ccc3nc(N[C@H]4CC[C@@H](NC(=O)[C@@H]5CCCN5C)CC4)sc3c2)ccn1` [Compound 137], for which the inhibition at 1 µM in assay [1] (compounds of Table 3) amounted to 71%; at kinase domain of cKIT (compounds of Table 3) it was 8%; on kinase domain of PDGFRβ (compounds of Table 3) it was 2%.

On to `CNC(=O)c1cc(Oc2ccc3nc(NCC(C)C)oc3c2)ccn1` [Compound 99, 4-(2-Isobutylamino-benzooxazol-6-yloxy)-pyridine-2-carboxylic acid methylamide], for which the inhibition at 1 µM was found to be 63% in assay [1], 12% on kinase domain of cKIT and 9% on kinase domain of PDGFRβ.

Take `CNC(=O)c1cc(Oc2ccc3nc(NCC(O)COC)sc3c2)ccn1` (stereo not shown) [Compound 127]: the inhibition at 1 µM in assay [1] (compounds of Table 3) is 95%; on kinase domain of cKIT (compounds of Table 3), 0%; on kinase domain of PDGFRβ (compounds of Table 3) it was 0%.

For the compound `O[C@@H]1CCCC[C@H]1Nc1nc2ccc(Oc3ccnc(C4=CCNCC4)c3)cc2s1` [Compound 161], the inhibition at 1 µM in assay [1] (compounds of Table 3) came out at 54%; on kinase domain of cKIT (compounds of Table 3), 20%; on kinase domain of PDGFRβ (compounds of Table 3), 26%.

“4-(2-Cyclobutylamino- benzooxazol-6-yloxy)- pyridine-2-carboxylic acid methylamide [Compound 22]” gave a CSF-1R percent inhibition in assay [1] (compounds of Table 4) of 100%. The cKit percent inhibition at kinase domain of cKIT (compounds of Table 4) is reported as 89%. The PDGFRβ percent inhibition at kinase domain of PDGFRβ (compounds of Table 4) came out at 90%.

Turning to `Cn1cc(-c2cc(Oc3ccc4nc(NC5CCCCCC5)sc4c3)ccn2)cn1` [Example 364, N-cycloheptyl-6-(2-(1-methyl-1H-pyrazol-4-yl)pyridin-4-yloxy)benzo[d]thiazol-2-amine], the inhibition at 1 µM (in assay [1]; at kinase domain of cKIT; on kinase domain of PDGFRβ) was 100% each time.
